One block for each compound: values may come before it.
Columns and labels:
[1] = Cohort study of multiple myeloma patients on IV BP: risk factors for BONJ (univariate and multivariate logistic regression); format: in vivo, human
Procedure: Multiple myeloma patients who were on intravenous BP (zoledronate or pamidronate) were recruited to voluntarily participate in this Institution Review Board (IRB) approved study. These patients signed informed consents and were followed routinely in the outpatient clinic. In addition to MM treatments, patients received either pamidronate 90mg or zoledronate 4mg IV monthly. Demographic and clinical information were verified from reviewing the medical records and tabled for analysis. Certain life style factors such as smoking at any time in the past, as well as certain co-morbidities such as diabetes mellitus, and prior drugs used were among the data collected on all patients.
Patients were considered to have BONJ if all of the following three characteristics are present (American Association of Oral and Maxillofacial Surgeons position paper, J Oral Maxillofac Surg, 65(3):369-76, 2007): 1) Current or previous treatment with a bisphosphonate; 2) Exposed bone in the maxillofacial region that has persisted for more than eight weeks; and 3) No history of radiation therapy to the jaws. […]
Baseline characteristics were compared by student's t-test or chi-square tests as appropriate. Allele frequencies deviations from Hardy-Weinberg Equilibrium (HWE) were assessed using chi-square tests with one degree of freedom. […]

[2] = Chart review of BONJ incidence in bisphosphonate-treated cancer patients; format: in vivo, human; conditions: outpatient bone marrow transplant clinic, all patients had myeloma; pamidronate only
Text: Medical and dental charts at the University of Florida (UF) and the associated Veterans Administration Medical Center (VAMC) were reviewed. […] There were 21 males. […] Fourteen patients had modest increases in their serum creatinine concentrations. The average number of previous chemo/radiotherapy regimens was 3.5. […] Primary disease status was as follows: 12 patients in clinical remission, 5 with stable disease and 10 with progressive disease. Eight patients received statin therapy and 6 had diabetes mellitus. The median length of treatment with bisphosphonate (BP) before the diagnosis of BONJ was 28 months. BONJ involved the mandible in 21 patients, maxilla in 4 and both in 2 patients. The most frequent presentation was pain, swelling, and exposed bone (FIG. 1). […] The BONJ incidence differed among the 3 centers where these patients were treated. […] The incidence in the VAMC was 4.2% while the incidence in the Cancer Center clinic at UF was 1.7%. In the latter two groups, patients had mostly solid tumors. The results described herein are consistent with the reports of increased incidence of BONJ with greater duration of therapy and that myeloma patients are more likely to develop the complication than solid tumor patients.

Odds Ratio for BONJ ([1]; multivariate logistic regression analysis of potential risk factors, MM patients on IV BP): 0.106
SMILES: O=C1CCC(N2C(=O)c3ccccc3C2=O)C(=O)N1 (stereo not drawn) [Thalidomide]

SMILES: O=P(O)(O)C(O)(Cn1ccnc1)P(=O)(O)O [zoledronate]
association between BONJ and treatment ([1]; univariate analysis, persisted in multivariate logistic regression, P=0.00029, 78 MM patients, 12 with BONJ): significant association

SMILES: NCCC(O)(P(=O)(O)O)P(=O)(O)O [pamidronate]
BONJ incidence [2]: 4%
